Data set [1] deals with P388. Kind of data set: Optimum dose (mg/kg) against P388 leukemic cells. It counts as functional, Mus musculus.
Data set [2] relates to P388. Kind of data set: Ratio of optimal dose (OD) and minimum effective dose (MED) required for antitumor activity in mice bearing P-388 lymphocytic leukemia. It counts as functional, Mus musculus.
Data set [3] concerns P388. Kind of data set: Maximum percent T/C (antitumor activity) against P388 leukemia cells for Mitomycin C. It counts as functional, Mus musculus.
Data set [4] deals with P388. Kind of data set: Minimum effective dose against P388 leukemic cells. To be noted: Mus musculus, read-out: MED. It counts as functional.
Data set [5] has as its system P388. Kind of data set: Maximum percent T/C (antitumor activity) against P388 leukemia cells. It counts as functional, Mus musculus.
Data set [6] is described as follows: Partition coefficient between 1-octanol and water containing phosphate buffer at pH 7.4. It counts as physicochemical. To be noted: 1-octanol/water containing phosphate buffer.

Where only a bound is given, the exact number is not on record here.

For the compound `COC12[C@@H]3N[C@@H]3CN1C1=C(C(=O)C(Nc3nc4c(Cl)cccc4s3)=C(C)C1=O)[C@@H]2COC(N)=O` (stereo partly drawn), in the data set on P388 [1], the OD came out at 25.6 mg/kg. In addition, in the data set with P388 [2], the Therapeutic ratio came out at 64. The T/C in the data set on P388 [3] is reported as 319%; with P388 [5], 144%. The minimal effective dose with P388 [4] came to 0.4 mg/kg.

As for `COC12[C@@H]3N[C@@H]3CN1C1=C(C(=O)C(Nc3ccc(F)cc3)=C(C)C1=O)[C@@H]2COC(N)=O` (stereo partly drawn), the OD in the data set with P388 [1] is 12.8 mg/kg. In addition, the Therapeutic ratio in the data set on P388 [2] came to 32. In addition, the T/C in the data set on P388 [3] was 278%; with P388 [5] it was 167%. The same compound came in with a logD in data set [6] of 1.44.

In the data set with P388 [1], `COC12[C@@H]3N[C@@H]3CN1C1=C(C(=O)C(Nc3ccccc3)=C(C)C1=O)[C@@H]2COC(N)=O` (stereo partly drawn) gave an OD of 12.8 mg/kg. For the same compound, the Therapeutic ratio in the data set on P388 [2] amounted to 8. The T/C in the data set with P388 [3] worked out at 200%; in the data set with P388 [5], 161%. In addition, the minimal effective dose in the data set on P388 [4] turned out to be 1.6 mg/kg. This compound gave a logD in data set [6] of 1.3.

In the case of `COC12[C@@H]3N[C@@H]3CN1C1=C(C(=O)C(Nc3nc4ccccc4s3)=C(C)C1=O)[C@@H]2COC(N)=O` (stereo partly drawn), the OD with P388 [1] turned out to be 25.6 mg/kg. Moreover, the Therapeutic ratio with P388 [2] amounted to 2. For the same compound, the T/C in the data set on P388 [3] is 325%; with P388 [5], 150%. Also, the minimal effective dose with P388 [4] came out at 12.8 mg/kg.

On to `COc1cc(NC2=C(C)C(=O)C3=C(C2=O)[C@H](COC(N)=O)C2(OC)[C@@H]4N[C@@H]4CN32)cc(OC)c1` (stereo partly drawn), for which the OD in the data set with P388 [1] came out at 6.4 mg/kg. The Therapeutic ratio in the data set with P388 [2] was 16. Further, the T/C in the data set with P388 [3] was 278%; in the data set on P388 [5], 161%. The minimal effective dose with P388 [4] was determined as 0.4 mg/kg.

`COC12[C@@H]3N[C@@H]3CN1C1=C(C(=O)C(Nc3ccc(C#N)cc3)=C(C)C1=O)[C@@H]2COC(N)=O` (stereo partly drawn): in the data set on P388 [1], the OD was 3.2 mg/kg. Besides, the Therapeutic ratio in the data set on P388 [2] came to 4. The T/C with P388 [3] is reported as 233%; with P388 [5] it was 150%. For the same compound, the minimal effective dose in the data set with P388 [4] stood at 0.8 mg/kg. In addition, in data set [6], the logD came out at 0.72.

For the compound `COC12[C@@H]3N[C@@H]3CN1C1=C(C(=O)C(Nc3cccc(Cl)c3)=C(C)C1=O)[C@@H]2COC(N)=O` (stereo partly drawn), in the data set on P388 [1], the OD worked out at 12.8 mg/kg. Further, the Therapeutic ratio with P388 [2] is 2. In addition, the T/C in the data set on P388 [3] is on record as 156%; with P388 [5] it was 139%. For the same compound, the minimal effective dose in the data set with P388 [4] is 6.4 mg/kg. The compound further came in with a logD in data set [6] of 2.01.

As to `COC12[C@@H]3N[C@@H]3CN1C1=C(C(=O)C(Nc3cccc(NC(C)=O)c3)=C(C)C1=O)[C@@H]2COC(N)=O` (stereo partly drawn), in the data set with P388 [1], the OD was 25.6 mg/kg. In addition, the Therapeutic ratio in the data set on P388 [2] is reported as 128. Besides, the T/C came to 211% in the data set on P388 [3] and 231% in the data set with P388 [5]. Moreover, the minimal effective dose with P388 [4] came to 0.2 mg/kg. In data set [6], this compound gave a logD of 0.33.

As to `COC12[C@@H]3N[C@@H]3CN1C1=C(C(=O)C(Nc3ccc4c(c3)OCO4)=C(C)C1=O)[C@@H]2COC(N)=O` (stereo partly drawn), the OD in the data set on P388 [1] stood at 3.2 mg/kg. Also, the Therapeutic ratio in the data set with P388 [2] is reported as over 16. Also, the T/C turned out to be 211% in the data set on P388 [3] and 167% with P388 [5]. For the same compound, in the data set on P388 [4], the minimal effective dose is under 0.2 mg/kg.

The compound `COc1cc(/N=C2/C(=O)C3=C(C(O)=C2C)N2C[C@H]4N[C@H]4C2(OC)[C@H]3COC(N)=O)c2ncccc2c1` (stereo partly drawn) yielded an OD in the data set with P388 [1] of 6.4 mg/kg. In the data set on P388 [2], the Therapeutic ratio is 16. The T/C in the data set on P388 [3] and with P388 [5] was 178% throughout. The minimal effective dose with P388 [4] came to 0.4 mg/kg.

The compound `COC12[C@@H]3N[C@@H]3CN1C1=C(C(=O)C(Nc3ccc4[nH]ncc4c3)=C(C)C1=O)[C@@H]2COC(N)=O` (stereo partly drawn) came in with an OD in the data set on P388 [1] of 25.6 mg/kg. In the data set on P388 [2], the Therapeutic ratio came to 128. Besides, the values for the T/C with P388 [3] and with P388 [5] were 250% and 206%, respectively. The minimal effective dose with P388 [4] was found to be 0.2 mg/kg.

For `COC12[C@@H]3N[C@@H]3CN1C1=C(C(=O)C(Nc3cccc(O)c3)=C(C)C1=O)[C@@H]2COC(N)=O` (stereo partly drawn), the OD in the data set on P388 [1] was 12.8 mg/kg. Moreover, in the data set on P388 [2], the Therapeutic ratio is given as over 64. Besides, the T/C in the data set with P388 [3] is 211%; in the data set on P388 [5], 356%. Besides, the minimal effective dose in the data set on P388 [4] is under 0.2 mg/kg. This compound registered a logD in data set [6] of 0.63.

`COc1ccccc1/N=C1/C(=O)C2=C(C(O)=C1C)N1C[C@H]3N[C@H]3C1(OC)[C@H]2COC(N)=O` (stereo partly drawn): the OD in the data set on P388 [1] came to 25.6 mg/kg. The Therapeutic ratio in the data set with P388 [2] is reported as 128. The T/C is 206% in the data set on P388 [3] and 200% in the data set with P388 [5]. The minimal effective dose in the data set on P388 [4] came out at 0.4 mg/kg.

In the data set with P388 [1], `COC12[C@@H]3N[C@@H]3CN1C1=C(C(=O)C(Nc3nc4ccc([N+](=O)[O-])cc4s3)=C(C)C1=O)[C@@H]2COC(N)=O` (stereo partly drawn) showed an OD of 25.6 mg/kg. Moreover, the Therapeutic ratio with P388 [2] was found to be 1. Also, the T/C with P388 [3] was determined as 156%; with P388 [5], 128%. Further, in the data set on P388 [4], the minimal effective dose came to 25.6 mg/kg.

As to `COC12[C@@H]3N[C@@H]3CN1C1=C(C(=O)C(Nc3cccc4nsnc34)=C(C)C1=O)[C@@H]2COC(N)=O` (stereo partly drawn), in the data set with P388 [1], the OD stood at 12.8 mg/kg. The Therapeutic ratio in the data set on P388 [2] was 32. The values for the T/C in the data set with P388 [3] and in the data set on P388 [5] were 250% and 161%, respectively. In addition, the minimal effective dose in the data set on P388 [4] stood at 0.8 mg/kg.

In turn, `COC12[C@@H]3N[C@@H]3CN1C1=C(C(=O)C(Nc3cccc(C)c3)=C(C)C1=O)[C@@H]2COC(N)=O` (stereo partly drawn) came in with an OD with P388 [1] of 12.8 mg/kg. In addition, the Therapeutic ratio in the data set on P388 [2] stood at 32. The T/C is 319% with P388 [3] and 181% with P388 [5]. Further, the minimal effective dose in the data set with P388 [4] amounted to 0.4 mg/kg. For the same compound, the pH-dependent lipophilicity (logD) in data set [6] worked out at 1.83.

`COc1cccc(NC2=C(C)C(=O)C3=C(C2=O)[C@H](COC(N)=O)C2(OC)[C@@H]4N[C@@H]4CN32)c1` (stereo partly drawn): the OD in the data set with P388 [1] was determined as 12.8 mg/kg. The Therapeutic ratio in the data set with P388 [2] came out at 64. In addition, the T/C in the data set with P388 [3] was 319%; in the data set with P388 [5], 181%. Besides, the minimal effective dose in the data set with P388 [4] worked out at 0.2 mg/kg. In data set [6], this compound had a logD of 1.28.

`COC1=C/C(=N/c2c(C)c(O)c3c(c2O)[C@H](COC(N)=O)C2(OC)[C@@H]4N[C@@H]4CN32)C=CC1=N` (stereo partly drawn): the OD in the data set with P388 [1] stood at 25.6 mg/kg. Moreover, the Therapeutic ratio in the data set on P388 [2] is recorded as 16. In addition, the T/C in the data set with P388 [3] is given as 311%; in the data set with P388 [5], 239%. The minimal effective dose in the data set on P388 [4] came out at 1.6 mg/kg.

Consider `COC12[C@@H]3N[C@@H]3CN1C1=C(C(=O)C(Nc3ccc(S(N)(=O)=O)cc3)=C(C)C1=O)[C@@H]2COC(N)=O` (stereo partly drawn), for which the OD in the data set on P388 [1] was found to be 25.6 mg/kg. Besides, in the data set on P388 [2], the Therapeutic ratio came out at 128. Also, the T/C was 213% with P388 [3] and 225% in the data set with P388 [5]. Further, the minimal effective dose with P388 [4] turned out to be 0.2 mg/kg. Besides, the logD in data set [6] is -0.52.

With `COc1ccc(NC2=C(C)C(=O)C3=C(C2=O)[C@H](COC(N)=O)C2(OC)[C@@H]4N[C@@H]4CN32)cc1N` (stereo partly drawn), the OD with P388 [1] was 6.4 mg/kg. Also, in the data set on P388 [2], the Therapeutic ratio worked out at 32. The values for the T/C in the data set on P388 [3] and in the data set with P388 [5] were 311% and 228%, respectively. In addition, the minimal effective dose with P388 [4] amounted to 0.2 mg/kg.
